The results in this text go back to patent US20230055441A1 (NONO INC., priority 2020, published 2023).

Series [1] has as its target T1, PSD95PDZ2 (Homo sapiens, UniProt P78352). In words: Competitive ELISA with biotinylated-NA-1 on coated PSD95PDZ2. The series is classed as binding. The method, then:
Binding was evaluated with a competitive ELISA assay. A plate was coated with 1 ug/ml PSD95PDZ2 in 50 mM bicarbonate buffer overnight at 4C. The plate was blocked in 2% BSA in PBST (0.05%) for 2 h at room temperature. […] The wells were washed again, and then incubated with TMB solution for 10 min. The reaction was stopped with 100 ul H2SO4. Absorbance was determined at 450 nm with the synergy H1 reader.
Target sequence in this assay (P78352 160-246 limits assumed): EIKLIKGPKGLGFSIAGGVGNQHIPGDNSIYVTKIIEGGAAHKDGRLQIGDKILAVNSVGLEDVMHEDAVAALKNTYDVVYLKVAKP
For orientation: In an ELISA, binding on a coated surface is turned into a signal by an enzyme label.

The nature of series [2]: Pharmacokinetic analysis in rats by route (subcutaneous, pulmonary instillation, intramuscular, intravenous). Particulars: rat; for Cmax / plasma concentration, pulmonary instillation / plasma exposure, pulmonary instillation / AUC / plasma exposure, subcutaneous / Cmax, subcutaneous: 25 mg/kg (Table 4); for plasma exposure, pulmonary instillation: versus intrapulmonary NA-1; for AUC / plasma exposure, subcutaneous / Cmax, subcutaneous: NA-1 versus IV NA-1, others versus subcutaneous NA-1.
Method: Rats were anaesthetized in the supine position (Isoflurane 1.5-%) and allowed to breath spontaneously in 0.5 L/min 02. The left femoral artery was cannulated for blood sampling.
Test agents were prepared at the stablish concentration in a total volume of vehicle. Pulmonary instillation was performed by intubation with a 14G catheter connected to a 1 cc syringe and the test agent will be delivered through the catheter. Subcutaneous (SQ or SC) injection was injected into the area of the left flank, no more than 2 ml of total volume per site.
Each dose was evaluated in 3 rats for each administration strategy. […] For the first experiment, evaluating two different administration routes (SQ and PI), blood samples were collected at 8 different timepoints: Pre and at 7 additional times (1, 2.5, 5, 10, 15, 30, 60 min) post dose (250 ul/sample). For the 24-hour PK curve experiment, blood samples were collected at 11 timepoints: Pre, 2.5, 5, 10, 15, 30, 60 min, 3 hr, 6 hr, 12 hr and 24 hr.
HPLC quantification: Plasma was separated from blood and stored at −80° C. until used. Each sample was precipitated by adding 1M HCl (10 ul/100 ul sample) at >80° C., centrifuged (12,000 rpm×15 min) and the precipitate collected. A 5 cm C—18 RP-HPLC column was equilibrated with 10% acetonitrile with 0.1% TFA at 40° C., the sample was injected and run in an Agilent 1260 Infinity Quaternary LC System. (30 min at 1.5 mL/min; gradient from 10% to 35% acetonitrile in 0.1% TFA; Absorbance detected at 220 nm). Standard curves for HPLC were generated from plasma samples spiked with known quantities of test agent.

Series [3] can be described thus: Plasma concentrations 15 minutes after subcutaneous dose in rats of the 3-pial vessel occlusion study. The series is classed as in vivo. Particulars: rat. On the procedure:
Unlike transient models of stroke in rats where much lower doses are required for neuroprotection, neuroprotection in 3 pial vessel occlusion models of stroke seems to require plasma concentrations of nerinetide at or above 2 ug/mL (or molar equivalent). […] Although the plasma levels continue to increase through about 3 hours then decrease, it is important to achieve rapid accumulation in the blood and brain for emergency indications like stroke. […] For pharmacokinetic sample analysis, calibration standard samples at concentrations of 0, 2.5, 5, 10, 15, 20 and 40 ug/mL of nerinetide were prepared by spiking 1 μL of the appropriate stock to 100 μL of plasma. […] Data is presented as mean±SD.

Series [4] in a line: Pharmacokinetics after subcutaneous injection in non-human primates. The series is classed as in vivo, cynomolgus macaques. Particulars: for plasma concentrations: cynomolgus macaques. The source says: All values are presented as mean±SD; Statistical significance when compared to nerinetide alone is indicated as * (one-way ANOVA with post-hoc turkey's correction, *P<0.01). (Cmax: maximum plasma concentrations based on the extrapolated time-zero value; t1/2: half-life at terminal phase; tmax: time to reach Cmax; AUC0-t: area under the concentration-time curve from 0 to the last measured value; AUC0-inf: extrapolated area under the concentration-time curve from 0 to infinity; Cl: total clearance). Data is presented as mean±SD of three-four animals per group. The (−) represent data not reported due to an extrapolation of the AUC0-inf greater than 20% and R^2 lower than 0.9.

Another series relates to histamine. In words: Histamine release in rat plasma (histamine ELISA).
The target in series [5] is T1, PSD95PDZ2. Kind of series: competitive ELISA, PSD95PDZ2 coated, competitor biotinylated NA-1.
Target sequence in this assay (P78352 160-246 limits assumed): as above
Series [6] addresses T1, PSD95PDZ2. In words: direct ELISA; biotinylated peptide.
Target sequence in this assay (P78352 160-246): as the sequence (P78352 160-246 limits assumed) above
Series [7] deals with T1, PSD95PDZ2. In words: direct ELISA; biotinylated peptide; unit printed "um".
Target sequence in this assay (P78352 160-246): as the sequence (P78352 160-246 limits assumed) above
The subject of a further series is plasmin. In words: digested with plasmin.
Another series deals with tPA. In words: tPA in PBS buffer (no plasma).
Another series relates to TNK. In words: TNK in phosphate buffered saline alone.
The test system of series [8] is TNK-tissue plasminogen activator. Kind of series: rat plasma with TNK.
Series [9] shares this test system. Kind of series: human plasma with TNK.
[10] abbreviates: subcutaneous 25 mg/kg versus nerinetide IV infusion.
The mark [11] stands for this setting: listed as D-Tat-L-IESDV, 25 mg/kg.
[12] abbreviates: subcutaneous 25, 8.3, 2.8 mg/kg.

pEC50, pIC50: −log10 of the molar value. Entries after “also recorded” stand apart in the source; their conditions may differ. Square brackets hold non-standard residues; d marks the D form. Ends that are not written are not given here. Peptide text beside a SMILES is read from it.

By pIC50 is commonly meant −log10 of the IC50, conventionally taken in molar units. By pEC50 is commonly meant −log10 of the EC50, conventionally taken in molar units.

Method for histamine: Blood samples were collected at 11 timepoints: Pre, 2.5, 5, 10, 15, 30, 60 min, 3 hr, 6 hr, 12 hr and 24 hr. Histamine levels were quantified by using commercially available histamine ELISA assay kit (Histamine ELISA-H1531-K01, Eagle Bioscience). The plates were coated with the plasma samples (50 ul/well) incubated for 60 minutes at room temperature on an orbital shaker with medium frequency. Then 100 ul of enzyme conjugate was added to the wells and incubated for 20 minutes at room temperature. Samples were washed again, and then incubated for 25 minutes at room temperature with TMB solution. The reaction was stopped with 100 ul H2SO4. Absorbance was determined on an ELISA plate reader at 450 nm.
Blood samples were taken at pre-injection and at 0, 1, 2.5, 5, 10, 15, 30- and 60-minutes post dose and used for histamine levels quantification using commercially available kit.

Turning to `CC[C@@H](C)[C@@H](NC(=O)[C@@H](CO)NC(=O)[C@@H](CO)NC(=O)[C@@H](CC(C)C)NC(=O)[C@@H](CCCCN)NC(=O)[C@@H](CCCNC(=N)N)NC(=O)[C@@H](CCCNC(=N)N)NC(=O)[C@@H](CCCNC(=N)N)NC(=O)[C@@H](CCC(N)=O)NC(=O)[C@@H](CCCNC(=N)N)NC(=O)[C@@H](CCCNC(=N)N)NC(=O)[C@@H](CCCCN)NC(=O)[C@@H](CCCCN)NC(=O)[C@@H](CCCNC(=N)N)NC(=O)CNC(=O)[C@H](N)Cc1ccc(O)cc1)C(=O)N[C@H](CCC(=O)O)C(=O)N[C@H](CO)C(=O)N[C@H](CC(=O)O)C(=O)N[C@@H](C(=O)O)C(C)C` [D-NA-1, ygrkkrrqrrrklssiesdv] (H-[dY]G[dR][dK][dK][dR][dR][dQ][dR][dR][dR][dK][dL][dS][dS][dI][dE][dS][dD][dV]-OH), on PSD95PDZ2 [1] (FIG. 12), the “EC50 compared among NA-1, D-Tat-L-2B9C and D-NA-1” value is given as “about ten-fold lower”. Further, in [2], the “Cmax / plasma concentration, pulmonary instillation” value is on record as “higher plasma concentration”; the “plasma exposure, pulmonary instillation” value is “greater plasma exposure”; the “AUC / plasma exposure, subcutaneous” value was “also increased Cmax and AUC relative to subcutaneous NA-1 but not to the same extent”; the “Cmax, subcutaneous” value is “also increased Cmax and AUC relative to subcutaneous NA-1 but not to the same extent”.

Take `CC[C@H](C)[C@H](NC(=O)[C@@H](CO)NC(=O)[C@@H](CO)NC(=O)[C@@H](CC(C)C)NC(=O)[C@@H](CCCCN)NC(=O)[C@@H](CCCNC(=N)N)NC(=O)[C@@H](CCCNC(=N)N)NC(=O)[C@@H](CCCNC(=N)N)NC(=O)[C@@H](CCC(N)=O)NC(=O)[C@@H](CCCNC(=N)N)NC(=O)[C@@H](CCCNC(=N)N)NC(=O)[C@@H](CCCCN)NC(=O)[C@@H](CCCCN)NC(=O)[C@@H](CCCNC(=N)N)NC(=O)CNC(=O)[C@H](N)Cc1ccc(O)cc1)C(=O)N[C@@H](CCC(=O)O)C(=O)N[C@@H](CO)C(=O)N[C@@H](CC(=O)O)C(=O)N[C@H](C(=O)O)C(C)C` [NA-3, ygrkkrrqrrrklsslESDV] (H-[dY]G[dR][dK][dK][dR][dR][dQ][dR][dR][dR][dK][dL][dS][dS]IESDV-OH): the pIC50 at PSD95PDZ2 [1] is over 5.30. For the same molecule, the “dose proportionality between treatment dose and Cmax” value in series [3] (single subcutaneous administration 25, 7.6, 2.5 mg/kg) is reported as “dose proportionality”. Also, the stability in plasma result in series [3] (subcutaneous, compared to nerinetide) is “higher stability in plasma”. In addition, the “plasma concentration at 15 min post-dose” value in [3] (subcutaneous, compared to nerinetide at the same dose) is listed as “higher concentration at 15 min post-dose”. Besides, the plasma concentrations entry in series [4] (7.6 mg/Kg subcutaneous) and in series [4] (25 mg/kg subcutaneous) was “able to achieve plasma concentrations higher than those demonstrated to be effective in humans” throughout. For the same molecule, in [4] (setting [10]), the AUC entry was “greater Cmax and AUC than nerinetide IV infusion”. Further, the Cmax result in series [4] (setting [10]) is “greater Cmax and AUC than nerinetide IV infusion”. The histamine release result is “resulted in histamine release but still much less than 7.6 mg/kg IV” with histamine (25 mg/kg SQ); “Lack of significant histamine release” with histamine (subcutaneous 2.8 mg/kg); “did not result in significant histamine release” in the series on histamine (subcutaneous 2.8 mg/kg, listed as D-Tat-L-IESDV); “Lack of significant histamine release” in the series with histamine (subcutaneous 8.3 mg/kg); “did not result in significant histamine release” with histamine (subcutaneous 8.3 mg/kg, listed as D-Tat-L-IESDV). Further, the “plasma exposure, pulmonary instillation” value in series [2] was “greater plasma exposure”. In addition, the entries for the “Cmax / plasma concentration, pulmonary instillation” value in series [2] (25 mg/kg) and in series [2] (setting [11]) were “higher plasma concentration” and “higher CMax than for NA-1 or D-Tat-L-2B9C”, respectively. Also, the “dose dependence of AUC, subcutaneous” value in series [2] (setting [12]) is reported as “dose-dependent increasing linearly with dose”. The “dose dependence of Cmax, subcutaneous” value in series [2] (setting [12]) is on record as “dose-dependent increasing linearly with dose”. The “AUC / plasma exposure, subcutaneous” value was “greater plasma exposure relative to SQ NA-1” in [2] (25 mg/kg); “increased Cmax and AUC compared with subcutaneous NA-1” in series [2] (setting [11]). The “Cmax, subcutaneous” value in [2] (25 mg/kg) is “higher plasma concentration”; in series [2] (setting [11]), “increased Cmax and AUC compared with subcutaneous NA-1”.

D-NA-1 (peptide): the fold difference of EC50 against NA-1 and D-Tat-L-2B9C with PSD95PDZ2 [5] came to 10 fold.

In the series with PSD95PDZ2 [6], D-NA-1 NA1 (Bio-D-NA1) had a pEC50 of 5.86.

For D-Tat-L-NA-1 (Bio-D-Tat-L-NA1), in the series with PSD95PDZ2 [7], the pEC50 was 6.86.

As for YGRKKRRQRRRKLSSIESDV, the fragment found result with plasmin is listed as “RRQRRRKLSSIESDV; also recorded: RQRRRKLSSIESDV; also recorded: QRRRKLSSIESDV; also recorded: RRKLSSIESDV; also recorded: RKLSSIESDV; also recorded: KLSSIESDV; also recorded: LSSIESDV”. The not cleaved result is recorded as “no degradation” in the series with tPA and “not directly cleaved” in the series on TNK.

Take “ygrkkrrqrrrKLSSIESDV ([dY]G[dR][dK][dK][dR][dR][dQ][dR][dR][dR]KLSSIESDV)”: the values for the not cleaved result (in the series with tPA; in series [8]; in series [9]) were “no degradation”, “stable” and “stable”, respectively.
